Here are results for 11 compounds from ChEMBL document CHEMBL3779792, “Anti-proliferative evaluation of monoterpene derivatives against leukemia” (Eur J Med Chem, 2016).

For one assay, the system named is Raji. Put plainly: Cytotoxicity against human Raji cells after 72 hrs by Cell-Titer Glo assay. It is filed as functional, cell-based.
Another assay concerns HepG2. Put plainly: Cytotoxicity against human HepG2 cells after 72 hrs by Cell-Titer Glo assay. It is filed as functional, cell-based. Conditions: HepG2, 72 h.
Another assay relates to Jurkat. Put plainly: Cytotoxicity against human Jurkat cells after 72 hrs by Cell-Titer Glo assay. Format: functional, cell-based.
The next assay has as its system HEK293. The assay is described as follows: Cytotoxicity against HEK293 cells after 72 hrs by Cell-Titer Glo assay. It is filed as cell-based. Conditions: Homo sapiens, HEK293, 72 h.
Assay [1] can be described thus: Cytotoxicity against human SEM cells after 72 hrs by Cell-Titer Glo assay. It is filed as functional, cell-based.
A further assay has as its system BJ. The assay is described as follows: Cytotoxicity against human BJ cells after 72 hrs by Cell-Titer Glo assay. Format: cell-based.
Assay [2] is described as follows: Cytotoxicity against human NALM6 cells after 72 hrs by Cell-Titer Glo assay. It is filed as functional, cell-based. The following applies: NALM-6, 72 h.

On to `COc1ccc(/C=C/[C@@](C)(/C=C/c2ccc(O)c(/C=C/C(=O)OCc3ccccc3)c2)CCC=C(C)C)cc1`, for which the EC50 with Raji is over 26 µM; in the assay on HepG2, over 26 µM; with Jurkat it was over 49 µM; in the assay on HEK293, over 36.6 µM; in assay [1] it was over 36.6 µM; with BJ, over 36.6 µM. In assay [2], this compound returned an EC50 of over 43.5 µM.

Take `C=C[C@@](C)(/C=C/c1ccc(O)cc1)CC/C=C(\C)C(=O)OCC`: the EC50 in the assay with Raji was over 26 µM; in the assay with HepG2, over 52.1 µM; in the assay on Jurkat it was over 49 µM; in the assay with HEK293, over 36.6 µM; in assay [1] it was over 36.6 µM; in the assay on BJ, over 36.6 µM. This compound also gave an EC50 in assay [2] of over 43.5 µM.

Consider `C=C[C@@](C)(/C=C/c1ccc(O)c(C=O)c1)CCC=C(C)C`, for which the EC50 was over 26 µM in the assay on Raji; over 52.1 µM with HepG2; over 49 µM in the assay on Jurkat; over 36.6 µM in the assay with HEK293; 8.51 µM in assay [1]; over 36.6 µM with BJ. In addition, the midpoint of the response in assay [2], the EC50, lay at 11.2 µM.

For `COc1ccc(/C=C/[C@@](C)(/C=C/c2ccc(O)c(/C=C/C#N)c2)CCC=C(C)C)cc1`, the EC50 was over 26 µM in the assay with Raji; over 26 µM in the assay with HepG2; over 49 µM in the assay with Jurkat; over 36.6 µM in the assay with HEK293; 4.54 µM in assay [1]; over 23.7 µM with BJ. For the same compound, in assay [2], the EC50 came to 16.5 µM.

In the case of `C=C[C@@](C)(/C=C/c1ccc(O)c(/C=C(\C)C(=O)OCC)c1)CCC=C(C)C`, the EC50 in the assay with Raji is over 26 µM; in the assay on HepG2, over 52.1 µM; in the assay on Jurkat, over 49 µM; in the assay with HEK293, over 36.6 µM; in assay [1] it was over 36.6 µM; with BJ, over 36.6 µM. In assay [2], the EC50 was over 7.51 µM.

With `C=C[C@@](C)(/C=C/c1ccc(O)cc1)CC/C=C(\C)CO`, the EC50 was over 26 µM in the assay on Raji; over 52.1 µM in the assay on HepG2; over 49 µM with Jurkat; over 36.6 µM in the assay with HEK293; over 36.6 µM in assay [1]; over 36.6 µM in the assay with BJ. This compound also displayed an EC50 in assay [2] of over 43.5 µM.

Take `C=C[C@@](C)(/C=C/c1ccc(O)cc1)CCC=O`: the concentration for a half-maximal effect (EC50) with Raji is over 26 µM; in the assay on HepG2, over 52.1 µM; in the assay on Jurkat, over 49 µM; with HEK293, over 36.6 µM; in assay [1] it was over 36.6 µM; with BJ, over 36.6 µM. Further, the EC50 in assay [2] is over 43.5 µM.

`C=C[C@@](C)(/C=C/c1ccc(O)c(/C=C/C=C/c2ccccc2)c1)CCC=C(C)C`: the EC50 in the assay on Raji was over 26 µM; with HepG2, over 52.1 µM; in the assay on Jurkat, over 49 µM; in the assay on HEK293, over 36.6 µM; in assay [1] it was over 15 µM; in the assay with BJ, over 36.6 µM. In assay [2], the EC50 was over 43.5 µM.

With `COc1ccc(/C=C/[C@@](C)(/C=C/c2ccc(O)c(/C=C/C(=O)OC(C)(C)C)c2)CCC=C(C)C)cc1`, the EC50 in the assay with Raji was over 26 µM; in the assay on HepG2, over 52.1 µM; in the assay on Jurkat it was over 49 µM; in the assay on HEK293, over 36.6 µM; in assay [1], over 36.6 µM; in the assay on BJ, over 36.6 µM. The EC50 in assay [2] is over 43.5 µM.

For `C=C[C@@](C)(/C=C/c1ccc(O)c(/C=C/C#N)c1)CCC=C(C)C`, the EC50 in the assay with Raji is over 26 µM; with HepG2 it was over 52.1 µM; in the assay with Jurkat, over 49 µM; in the assay on HEK293 it was over 36.6 µM; in assay [1] it was over 36.6 µM; in the assay on BJ, over 36.6 µM. The compound further gave an EC50 in assay [2] of over 43.5 µM.

As to `C=C[C@@](C)(/C=C/c1ccc(O)c(/C=C/c2ccc(Cl)cc2)c1)CCC=C(C)C`, the EC50 in the assay on Raji was over 26 µM; in the assay on HepG2, over 52.1 µM; with Jurkat, over 49 µM; with HEK293, over 36.6 µM; in assay [1] it was over 36.6 µM; in the assay on BJ, over 36.6 µM. This compound returned an EC50 in assay [2] of over 43.5 µM.
